According to patent US8716355B2, “Hydroxylated tolans and related compounds in the treatment of a cancer” (Kent State University, priority 2007, dated 2014):
Where “and” joins values, the source holds several entries; their conditions need not be identical. Equal values may be shown once.

Experiments:
[1] = tested on: normal human fibroblasts (MHRF); experiment: MTT cytotoxicity, normal human fibroblasts; type: cell-based; conditions: for CD50 against MHRF: MTT
Description: As a first step, the antitumor activity of the tolans was assessed against a panel of three cancer cells lines that produce solid tumors upon implantation into animals. DU145 is an androgen-independent prostate cancer cells. T24 is a transitional cell bladder carcinoma cell. MDAH2274 (“MDAH) is an endometroid ovarian adenocarcinoma cell. To assess the selectivity of this antitumor activity, the toxicity of the tolans to normal human fibroblasts (MHRF) was examined. Subsequently, studies with Tolan-3 (KST-201) were expanded to test its action on a wide range of tumor cell lines.
(§1) Cell killing was evaluated using the colorimetric MTT assay. The assay measures the formation of a colored product from a chromogenic precursor, the tetrazole 3-[4,5-dimethylthiazol-2-yl]-2,5 diphenyltetrazolium bromide (MTT). The yellow MTT is reduced to purple formazan in the mitochondria of living cells. A solubilization solution (typically dimethyl sulfoxide or sodium dodecyl sulfate in dilute hydrochloric acid) is added to dissolve the insoluble purple formazan product into a colored solution. The absorbance of this colored solution is quantified by measuring at a certain wavelength (usually between 500 and 600 nm) by a spectrophotometer. The amount of purple formazan product generated is proportional to the number of viable cells (Mosmann, T., 1983, J. Immunol. Meth. 65:55-63; Wilson, A. P., Cytotoxicity and Viability Assays. In: Animal Cell Culture: A Practical Approach, 3rd ed. (Masters, J R W, ed.) Oxford University Press: Oxford, Vol. 1, pp. 175-219. 2000). This MTT assay is used widely to assess the cytotoxicity and selectivity of compounds such as anti-cancer drugs. The assay is suitable for rapid toxicity characterization of a test agent such as a drug formulation. […] A lower CD50 indicates a greater cytotoxic activity (as a lower amount of the agent is needed to achieve a fixed level of cytotoxicity). Two agents can be compared by examining the fold-increase or decrease in their CD50 values.

Mushroom tyrosinase = experiment: Inhibition of mushroom tyrosinase activity; type: biochemical; conditions: concentration not given
Description: All chemical used for reagents were purchased from Sigma Chemical Company. KST201 at each tested concentration (1000, 250 and 100 μM) was dissolved in 10% ethanol from a master mixture of the drug prepared at 0.1M in 100% ethanol.
Mushroom tyrosinase (Sigma) was diluted in 50 mM phosphate buffer, pH 6.5 to yield a concentration of 16 U/μl. […] A master mix containing 0.5 mM L-DOPA [3,4-dihydroxy-1-phenylalanine], 10 mM Sodium L-tyrosine in 50 mM phosphate buffer, pH 6.5 was prepared. The KST-201 dilutions were preincubated with the enzyme for 20 minutes. The samples were pipetted into 24 well plates and the master mixture added quickly. The reaction was read using a kinetic format in which wells were read every 30 seconds over a course of 10 minutes at a wavelength of 475 nm using a Synergy HT Plate reader. A kinetic curve was generated for each sample compared to a total reaction with mushroom tyrosinase without a drug (total).

HCT116 = experiment: MTT cytotoxicity, HCT116 colon; type: cell-based; conditions: Homo sapiens, HCT-116, 72 h; 3 Days; read-out: CD50 (μM) HCT116
Description: as §1, with “Two agents can be compared by examining the fold-increase or decrease in their CD50 values.” left out

WiDR = experiment: MTT cytotoxicity, WiDR colon; type: cell-based; conditions: Homo sapiens, 72 h, 3 Days, read-out: CD50 (μM) WiDR
Description: as §1, with “Two agents can be compared by examining the fold-increase or decrease in their CD50 values.” left out

Vero cells = experiment: Cytotoxicity (CD50) on Vero cells; type: cell-based; conditions: 48 hours of exposure
From the text: See Example II for tumor cell cytotoxicity of these compounds. […] NAB group 32 contains two compounds, Tolan-2 (also designated herein as KST-201) and Stil-2. Based on the NAB, they were classified as topological isomers. However, chemically they differ because Stil-2, a […], contained a double bonded linker, while Tolan-2 contained a triple bonded linker. The cytotoxicity of the two molecules on Vero cells differed markedly: Tolan-2 was less toxic than Stil-2.

NCIH460 = experiment: MTT cytotoxicity, NCIH460 lung; type: cell-based; conditions: Homo sapiens, NCI-H460, 72 h; 3 Days; read-out: CD50 (μM) NCIH460
Description: as §1, with “Two agents can be compared by examining the fold-increase or decrease in their CD50 values.” left out

A375 = experiment: MTT cytotoxicity, A375 melanoma; type: cell-based; conditions: Homo sapiens, A-375, 72 h; 3 Days; read-out: CD50 (μM) A375
Description: as §1, with “Two agents can be compared by examining the fold-increase or decrease in their CD50 values.” left out

HSV-1 = HSV-1 replication in infected Vero cells (plaque assay); type: cell-based, Herpes Simplex Virus-Type 1; conditions: for IC50: Human alphaherpesvirus 1, Vero, read-out: IC50, concentration at which 50% of HSV-1 replication was inhibited
Description: For this purpose HSV-1 replication at 24, 48 and 72 h was examined in the presence or absence of varying concentrations of the polyphenol.
The SI is the ratio of the CD50 divided by a selected inhibitory concentration (IC %).
Viral inhibition by Tolan-3 appeared to occur after viral entry into cells. […] Subsequently, the compound was removed and replaced with culture medium alone, and the incubated continued for 48 or 72 more hrs. In a second experiment, HSV-1 infected Vero cells were incubated with 350 μM Tolan-3 for 48 h. Thereafter, the Tolan-3 was removed and replaced by medium and the incubation continued for an additional 24 h. Viral titers were calculated by a standard plaque assay.

MeWo = experiment: MTT cytotoxicity, MeWo melanoma; type: cell-based; conditions: Homo sapiens, 72 h, 3 Days, read-out: CD50 (μM) MeWo
Description: as §1, with “Two agents can be compared by examining the fold-increase or decrease in their CD50 values.” left out

## Oc1ccc(C#Cc2ccc(O)cc2)cc1 [KST-201, 4,4′-dihydroxytolan]
[1]; 2 days incubation
  CD50 against MHRF: 194.1 ± 9.60 µM
[1]; 3 days incubation
  CD50 against MHRF: 153 µM and 153.2 ± 4.40 µM and 153 ± 4.4 µM
[1]; Table 15 vs Table 14
  Fold less toxic to normal fibroblasts than resveratrol: 3.5 fold
Mushroom tyrosinase
  % inhibition of mushroom tyrosinase activity: 59.2±13%
HCT116
  IC50: 129 ± 4 µM
WiDR
  IC50: 80 ± 0.9 µM
Vero cells
  CD50: 106 µM
  Log CD50: 2.03
NCIH460
  IC50: 42 ± 2 µM
A375
  IC50: 4.6 ± 0.1 µM
HSV-1; 48 h post-infection
  SI50 (selectivity index, CD50 divided by IC50): 6.8
HSV-1
  IC50: 15.6 µM
HSV-1; at CD50, 75% and 50% of CD50, 24, 48, 72 h
  Effect on HSV-1 viral replication in Vero cells (in words): significant anti-HSV activity
MeWo
  IC50: 156 ± 2.5 µM

## Oc1ccc(/C=C/c2cc(O)cc(O)c2)cc1 [Resveratrol, 3,5,4′-trihydroxy-trans-stilbene, reference compound]
[1]; 1 day incubation
  CD50 against MHRF: 154.8 ± 16.5 µM
[1]; 1 day incubation, listed as resveratrol
  CD50 against MHRF: 155 µM
[1]; 2 days incubation
  CD50 against MHRF: 50.9 ± 0.6 µM
[1]; 3 days incubation
  CD50 against MHRF: 44.3 ± 3.0 µM and 47 ± 6.0 µM
[1]; 3 days incubation, listed as resveratrol
  CD50 against MHRF: 44 µM
Mushroom tyrosinase
  % inhibition of mushroom tyrosinase activity: 59.9±7.4%
HCT116
  IC50: 94 ± 0.1 µM
WiDR
  IC50: 142 ± 6.4 µM
Vero cells
  CD50: 264 µM
  Log CD50: 2.42
NCIH460
  IC50: 43 ± 20 µM
A375
  IC50: 19 ± 0.2 µM
HSV-1
  IC50: 23.4 µM
MeWo
  IC50: 185 ± 3.7 µM
